Measurements: US7416848B2, “DNA encoding SNORF25 receptor” (H. Lundbeck A/S, priority 1999, dated 2008)

How the values were obtained:
[1] = target: T1, SNORF25 (Homo sapiens, UniProt Q8TDV5); assay: Stimulation of cAMP release by CHO cells stably expressing hSNORF25 receptors; type: cell-based; design: expressed in transfected cells
T1 sequence (Q8TDV5 1-335): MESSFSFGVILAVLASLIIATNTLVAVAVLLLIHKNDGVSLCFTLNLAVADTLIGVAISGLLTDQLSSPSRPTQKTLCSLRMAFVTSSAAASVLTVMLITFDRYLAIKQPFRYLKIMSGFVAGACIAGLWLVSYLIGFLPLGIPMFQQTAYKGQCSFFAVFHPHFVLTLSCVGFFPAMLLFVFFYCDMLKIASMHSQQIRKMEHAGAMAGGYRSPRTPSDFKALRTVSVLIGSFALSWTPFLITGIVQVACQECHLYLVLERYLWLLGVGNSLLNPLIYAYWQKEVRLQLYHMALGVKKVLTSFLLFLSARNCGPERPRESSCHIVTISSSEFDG
Protocol: CHO cells are grown on 150 mm plates in HAM's F-12 medium with supplements (10% bovine calf serum, 4 mM L-glutamine and 100 units/ml penicillin/100 μg/ml streptomycin) at 37° C., 5% CO2. Stock plates of CHO cells are trypsinized and split 1:8 every 3–4 days.
Heterologous DNA can be stably incorporated into host cells, causing the cell to perpetually express a foreign protein. Methods for the delivery of the DNA into the cell are similar to those described above for transient expression but require the co-transfection of an ancillary gene to confer drug resistance on the targeted host cell. The ensuing drug resistance can be exploited to select and maintain cells that have taken up the DNA. An assortment of resistance genes are available including but not restricted to neomycin, kanamycin, and hygromycin. For the purposes of studies concerning the receptor of this invention, stable expression of a heterologous receptor protein is typically carried out in, mammalian cells including but not necessarily restricted to, CHO, HEK293, LM(tk−), etc.
(§1) The receptor-mediated stimulation or inhibition of cyclic AMP (cAMP) formation may be assayed in cells expressing the receptors. According to one method, cells are plated in 96-well plates or other vessels and preincubated in a buffer such as HEPES buffered saline (NaCl (150 mM), CaCl2 (1mM), KCl (5 mM), glucose (10 mM)) supplemented with a phosphodiesterase inhibitor such as 5 mM theophylline, with or without protease inhibitor cocktail (For example, a typical inhibitor cocktail contains 2 μg/ml aprotinin, 0.5 mg/ml leupeptin, and 10 μg/ml phosphoramidon.) for 20 min at 37° C., in 5% CO2. Test compounds are added with or without […] and incubated for an additional 10 min at 37° C. The medium is then aspirated and the reaction stopped by the addition of 100 mM HCl or other methods. The plates are stored at 4° C. for 15 min, and the cAMP content in the stopping solution is measured by radioimmunoassay. Radioactivity may be quantified using a gamma counter equipped with data reduction software. Specific modifications may be performed to optimize the assay for the receptor or to alter the detection method of cAMP.
as §1, with “According” for “The receptor-mediated stimulation or inhibition of cyclic AMP (cAMP) formation may be assayed in cells expressing the receptors. According”, “a second” for “one”, “washed 2 times with” for “plated in 96-well plates or other vessels and preincubated in a buffer such as”, “saline, as described above, and incubated overnight. On the day of the experiment, cells are washed 2 times with HEPES” for “saline (NaCl (150 mM), CaCl2 (1mM), KCl (5 mM), glucose (10 mM))”
Several other closely related analogues of PAF namely Lyso-PAF with different carbon chains also stimulated cAMP.

[2] = tested on: control (CFTR alone) oocytes; assay: CFTR Cl- currents in control oocytes injected with only CFTR mRNA; type: cell-based, Xenopus laevis; conditions: 10 μM
[3] = target: T1, SNORF25; assay: Cl- currents via phospholipase C pathway in SNORF25 oocytes; type: cell-based; design: from linearized plasmids or PCR products containing the complete coding region of the genes; expressed in transfected cells; host or cells: Xenopus laevis oocytes injected with SNORF25 mRNA (with or without CFTR mRNA)
Protocol: Oocytes are harvested from Xenopus laevis and injected with mRNA transcripts as previously described (Quick and Lester, 1994; Smith et al., 1997). The test receptor of this invention and Gα subunit RNA transcripts are synthesized using the T7 polymerase (“Message Machine,” Ambion) from linearized plasmids or PCR products containing the complete coding region of the genes. Oocytes are injected with 10 ng synthetic receptor RNA and incubated for 3–8 days at 17 degrees. Three to eight hours prior to recording, oocytes are injected with 500 pg promiscuous Gα subunits mRNA in order to observe coupling to Ca^++ activated Cl^− currents.
Heterologous expression of GPCRs in Xenopus oocytes has been widely used to determine the identity of signaling pathways activated by agonist stimulation (Gundersen et al., 1983; Takahashi et al., 1987). Activation of the phospholipase C (PLC) pathway is assayed by applying a test compound in ND96 solution to oocytes previously injected with mRNA for the SNORF25 receptor and observing inward currents at a holding potential of approximately −80 mV. The appearance of currents that reverse at −25 mV and display other properties of the Ca^++-activated Cl^− channel is indicative of receptor-activation of PLC and release of IP3 and intracellular Ca^++.

potency lower than PAF(C18) ([1]; cAMP release, SNORF25 stable CHO cells (FIG. 11B)): ~3 fold | % of PAF(C18) Response ([1]; maximum response as % of maximum response produced by PAF(C18) (taken as 100%)): 105% | EC50 ([1]; mean ± S.E.M., at least 3 experiments, CHO cells stably expressing hSNORF25): 1440 ± 652 nM | responses in oocytes expressing chimeric G-proteins ([3]; chimeric G-proteins coupling Gi and Go GPCRs to phospholipase C pathway): not evoked | Cl- currents in oocytes lacking CFTR ([3]; oocytes lacking CFTR, Gq-mediated phospholipase C pathway): did not stimulate Cl^− currents
Structure (SMILES): CC1=C(/C=C/C(C)=C/C=C/C(C)=C/C(=O)O)C(C)(C)CCC1 [ATRA, all-trans-retinoic acid]
current response in oocytes injected with only CFTR mRNA [2]: no such current was observed
